Laboratory results: a flash point compilation (Sun et al. 2020)

Key:
[1] = not given; remark: listed apart in the source
[2] = not given; remark: listed apart in the source

| flash point | flash point [1] | SMILES | further results |
| --- | --- | --- | --- |
| 25.00 °C | – | C=CC=CO[Si](C)(C)C [1-(Trimethylsiloxy)-1,3-butadiene] | – |
| 42.00 °C | – | CCCCCC#C[Si](C)(C)C [1-Heptynyltrimethylsilane] | – |
| 60.00 °C | – | CCCCC=C[Si](Cl)(Cl)Cl [1-Hexenyltrichlorosilane] | – |
| – | 95 °C | CCCCCCCCCO [1-NONANOL] | – |
| – | 63.0 °C | CCCCCCCCC=O [1-Nonanal] | – |
| – | 96.0 °C | CCCCCCCCCO [1-Nonanol] | – |
| – | -54 °C | C=CCCC [1-PENTENE] | – |
| – | 112.0 °C | C=CCCCCCCCCCCCCC [1-Pentadecene] | – |
| – | 50.0 °C | CCCC(C)CO (centres undefined) [1-Pentanol, 2-methyl-] | – |
| – | -27.9 °C | C=CC(C)CC (centres undefined) [1-Pentene, 3-methyl-] | – |
| – | 115 °C | CCCCCCCCCCCO [1-UNDECANOL] | – |
| – | 113.0 °C | CCCCCCCCCCCO [1-Undecanol] | – |
| – | 79.0 °C | CCC(C)(C)C(=O)O [2,2-Dimethylbutyric acid] | – |
| – | 85.0 °C | Cc1cccc(C)c1O [2,6-Dimethylphenol] | – |
| 146.00 °C | – | CO[Si](CCC1CCC2OC2C1)(OC)OC (centres undefined) [2-(3,4-epoxycyclohexyl)ethyltrimethoxysilane] | – |
| – | 26.0 °C | CC(C)C(C)O (centres undefined) [2-Butanol, 3-methyl-] | – |
| – | -44.9 °C | CC=C(C)C [2-Butene, 2-methyl-] | – |
| – | 46.2 °C | CCCCC(C)O (centres undefined) [2-HEXANOL] | – |
| – | 39.0 °C | CCCCCC(C)=O [2-Heptanone] | – |
| – | 45.0 °C | CCCCC(C)O (centres undefined) [2-Hexanol] | – |
| – | 29.2 °C | CC(C)CO [2-Methyl-1-propanol] | – |
| 90.00 °C | – | CC(CCl)C[Si](C)(Cl)Cl (centres undefined) [3-Chloro-2-methylpropylmethyldichlorosilane] | – |
| 45.00 °C | – | CO[Si](C)(CCCCl)OC [3-Chloropropylmethyldimethoxysilane] | – |

| flash point | flash point [1] | SMILES | further results |
| --- | --- | --- | --- |
| 92.00 °C | – | C=C(C)C(=O)OCCC[Si](OC)(OC)OC [3-Methacryloxypropyltrimethoxysilane] | – |
| – | 27 °C | CCC(O)CC [3-PENTANOL] | – |
| – | 24.0 °C | CCC(C)(O)CC [3-Pentanol, 3-methyl-] | – |
| – | 30.0 °C | CCC(O)CC [3-Pentanol] | – |
| – | 88.4 °C | CCCCCC(=O)CCCCC [6-Undecanone] | – |
| 18.00 °C | – | C=CC=CC[Si](C)(C)C [(2,4-Pentadienyl)trimethylsilane] | – |
| 38.00 °C | – | C[Si](C)(C)OC1=CCCC1 [(Cyclopentenyloxy)trimethylsilane] | – |
| 10.00 °C | – | CCN(CC)[Si](C)(C)C [(Diethylamino)trimethylsilane] | – |
| 96.00 °C | – | CO[Si](CCCNCCN)(OC)OC [Aminoethylaminopropyltrimethoxysilane] | – |
| – | 37.0 °C | CCCCCOC(C)=O [Amyl acetate] | – |
| 62.00 °C | – | C[Si](C)(C)Cc1ccccc1 [Benzyltrimethylsilane] | – |
| 35.00 °C | – | CCN(CC)[Si](C)(C)N(CC)CC [Bis(diethylamino)dimethylsilane] | – |
| 20.00 °C | – | C[Si](C)(Cl)CCC(F)(F)F [Chlorodimethyl(3,3,3-trifluoropropyl) silane] | – |
| 22.00 °C | – | C[Si](C)(Cl)CCl [Chloromethyldimethylchlorosilane] | – |
| – | 52.5 °C | CCCCC1CCCCC1 [Cyclohexane, butyl-] | – |
| 85.00 °C | – | Cl[Si](Cl)(Cl)C1CCCCC1 [Cyclohexyltrichlorosilane] | – |
| 29.00 °C | – | C[Si](C)(C)C1C=CC=C1 [Cyclopentadienyltrimethylsilane] | – |
| – | 11.5 °C | NC1CCCC1 [Cyclopentanamine] | – |
| – | -0.0 °C | CCC1CCCC1 [Cyclopentane, ethyl-] | – |
| 77.00 °C | – | C[Si]1(C)O[Si](C)(C)O[Si](C)(C)O[Si](C)(C)O[Si](C)(C)O1 [Decamethylcyclopentasiloxane] | – |
| – | 148.0 °C | CCCCCCCCCC(=O)O [Decanoic acid] | – |
| 43.00 °C | – | CCO[Si](CC)(CC)OCC [Diethyldiethoxysilane] | – |
| -8.00 °C | – | CO[Si](C)(C)OC [Dimethyldimethoxysilane] | – |

| flash point | flash point [1] | SMILES | further results |
| --- | --- | --- | --- |
| 142.00 °C | – | Cl[Si](Cl)(c1ccccc1)c1ccccc1 [Diphenyldichlorosilane] | – |
| 121.00 °C | – | CO[Si](OC)(c1ccccc1)c1ccccc1 [Diphenyldimethoxysilane] | – |
| 98.00 °C | – | c1ccc([SiH2]c2ccccc2)cc1 [Diphenylsilane] | – |
| – | 7.5 °C | CCCNCCC [Dipropylamine] | – |
| 93.00 °C | – | C[Si]1(C)O[Si](C)(C)O[Si](C)(C)O[Si](C)(C)O[Si](C)(C)O[Si](C)(C)O1 [Dodecamethylcyclohexasiloxane] | – |
| 79.00 °C | – | C[Si](C)(C)O[Si](C)(C)O[Si](C)(C)O[Si](C)(C)O[Si](C)(C)C [Dodecamethylpentasiloxane] | – |
| – | 90.0 °C | CCOCCOCCO [Ethanol, 2-(2-ethoxyethoxy)-] | – |
| – | 39.0 °C | COCCO [Ethanol, 2-methoxy-] | – |
| -4.00 °C | – | CC[Si](C)(C)Cl [Ethyldimethylchlorosilane] | – |
| -60.00 °C | – | CC[SiH3] [Ethylsilane] | – |
| – | 6.0 °C | CCCCCC(C)C [Heptane, 2-methyl-] | – |
| – | 23.0 °C | CCCCC(CC)CC [Heptane, 3-ethyl-] | – |
| – | 115.0 °C | CCCCCCC(=O)O [Heptanoic acid] | – |
| 154.00 °C | – | CCCCCCCCCCCCCCCC[Si](Cl)(Cl)Cl [Hexadecyltrichlorosilane] | – |
| 76.00 °C | – | CC[Si](CC)(CC)O[Si](CC)(CC)CC [Hexaethyldisiloxane] | – |
| 32.00 °C | – | C[Si]1(C)O[Si](C)(C)O[Si](C)(C)O1 [Hexamethylcyclotrisiloxane] | – |
| 8.00 °C | – | C[Si](C)(C)N[Si](C)(C)C [Hexamethyldisilazane] | – |
| 26.00 °C | – | C[Si](C)(C)S[Si](C)(C)C [Hexamethyldisilthiane] | – |
| – | 5 °C | CCCC(CC)CC [Hexane, 3-ethyl-] | – |
| – | 110.0 °C | CCCCC(CC)C(=O)O (centres undefined) [Hexanoicacid, 2-ethyl-] | – |
| 37.00 °C | – | CC(C)C[Si](Cl)(Cl)Cl [Isobutyltrichlorosilane] | – |
| 24.00 °C | – | CCO[Si](C)(OCC)OCC [Methyltriethoxysilane] | – |
| 27.00 °C | – | C[Si](C)(C)N1CCOCC1 [N-(Trimethylsilyl)morpholine] | – |

| flash point | flash point [1] | SMILES | further results |
| --- | --- | --- | --- |
| – | 46.0 °C | CCCCCCC(C)CC (centres undefined) [Nonane, 3-methyl-] | – |
| – | 44.0 °C | CCCCCC(C)CCC (centres undefined) [Nonane, 4-methyl-] | – |
| – | 39 °C | CCCCC(C)CCCC [Nonane, 5-methyl-] | – |
| 66.00 °C | – | C[Si]1(C)N[Si](C)(C)N[Si](C)(C)N[Si](C)(C)N1 [Octamethylcyclotetrasilazane] | – |
| – | 51.0 °C | CCCCCCCC=O [Octanal] | – |
| – | 23.0 °C | CCCCC(C)CCC (centres undefined) [Octane, 4-methyl-] | – |
| – | 14.0 °C | CCCCCCCC [Octane] | – |
| 100.00 °C | – | CCCCCCCC[Si](OCC)(OCC)OCC [Octyltriethoxysilane] | – |
| -19.00 °C | – | C[SiH](C)O[Si](C)(C)C [Pentamethyldisiloxane] | – |
| – | 85.0 °C | CCc1ccccc1O [Phenol, 2-ethyl-] | – |
| 38.00 °C | – | C[SiH](C)c1ccccc1 [Phenyldimethylsilane] | – |
| 8.00 °C | – | [SiH3]c1ccccc1 [Phenylsilane] | – |
| 85.00 °C | – | CO[Si](OC)(OC)c1ccccc1 [Phenyltrimethoxysilane] | – |
| – | -19.9 °C | CCCOCC [Propane, 1-ethoxy-] | – |
| 27.00 °C | – | C#CCO[Si](C)(C)C [Propargyloxytrimethylsilane] | – |
| 50.00 °C | – | CCC[Si](O[SiH](C)C)(O[SiH](C)C)O[SiH](C)C [Propyltris(dimethylsiloxy)silane] | – |
| – | -15.0 °C | CCN(CC)CC [TRIETHYLAMINE] | – |
| 50.00 °C | – | O=C=N[Si](N=C=O)(N=C=O)N=C=O [Tetraisocyanatosilane] | – |
| – | 90.0 °C | CCCCCCCCCCCCC [Tridecane] | – |
| – | -11.0 °C | CCN(CC)CC [Triethylamine] | – |
| – | 38.0 °C | CCc1cccc(C)c1 [m-Ethyltoluene] | – |
| – | -28.8 °C | CCC(C)N (centres undefined) [sec-BUTYLAMINE] | – |
| – | -18.9 °C | CCC(C)N (centres undefined) [sec-Butylamine] | – |

| SMILES | flash point | flash point [1] | further results |
| --- | --- | --- | --- |
| CCCS [1-Propanethiol] | – | -19.9 °C | – |
| Cc1ccc(O)c(C)c1 [2,4-Dimethylphenol] | – | 95.0 °C | – |
| CCCCC(CC)CO (centres undefined) [2-Ethylhexanol] | – | 73 °C | – |
| Nc1ccccc1 [Aniline] | – | 71.0 °C | flash point [2]: 70.00 °C |
| CNc1ccccc1 [Benzenamine, N-methyl-] | – | 78 °C | – |
| CCCCS [Butanethiol] | – | 1.0 °C | – |
| CC(C)NC(C)C [Diisopropylamine] | – | -7.0 °C | – |
| CNC [Dimethylamine] | – | -49.9 °C | – |
| CCCCCC#N [HEXANENITRILE] | – | 47 °C | – |
| CCCCCC#N [Hexanenitrile] | – | 43.0 °C | – |
| CN(C)c1ccccc1 [N,N-DIMETHYLANILINE] | – | 62.0 °C | – |
| CN(C)c1ccccc1 [N,N-Dimethylaniline] | – | 75.0 °C | – |
| CCCCCCCC(=O)O [Octanoic acid] | – | 127.0 °C | flash point [2]: 132.00 °C |
| Oc1ccccc1 [PHENOL] | – | 80 °C | – |
| CCCOC(C)=O [Propyl acetate] | – | 10.6 °C | – |
| Cc1ccccn1 [Pyridine, 2-methyl-] | – | 26.0 °C | – |
| Cc1ccncc1 [Pyridine, 4-methyl-] | – | 39.0 °C | – |
| Cc1ccccc1 [TOLUENE] | – | 4.0 °C | – |
| Cc1ccccc1 [Toluene] | – | 6.0 °C | flash point [2]: 4.40 °C |
